This is an account of results in US20260199323A1, “LIGAND COMPOUNDS FOR E3 UBIQUITIN LIGASE, PROTEIN DEGRADERS DEVELOPED ON BASIS OF LIGAND COMPOUNDS, AND USES THEREOF” (GLUETACS THERAPEUTICS (SHANGHAI) CO., LTD., priority 2021, published 2026).

One assay has as its system SR. Kind of assay: CCK-8 tumor cell proliferation, SR. In kind it is cell-based, Human. The note with it: Homo sapiens; Table 15, ALK inhibitor based; SR; read-out: IC50 inhibiting proliferation of tumor cells, SR. In short, it runs like this:
(§1)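 STR-authenticated, mycoplasma-negative cells were cultured at 37 °C with 5% CO2. One day after plating, they were treated with a 5-fold serial dilution of compound (10 points, highest 10 μM). CCK-8 was used to assess viability, giving IC50 values.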

In a further assay the test system is MV-4-11. Put plainly: CCK-8 tumor cell proliferation, MV-4-11. The assay is classed as cell-based, Human. The note with it: Homo sapiens, MV4-11, MV-4-11, read-out: IC50 inhibiting proliferation of tumor cells, MV-4-11. The protocol:
(§2) The tumor cells used herein were cultured in a cell culture medium listed in table 4 at 37° C. in an incubator with 5% CO2. Prior to experimentation, all cells used were correctly identified by STR profiling, and tested negative for mycoplasma through routine screenings.
(§3) IC50 values of the compounds of the present disclosure (including the compounds in Tables 1 and 3, and compounds of examples) were measured using the Meilun Cell Counting Kit-8 kit from Dalian Meilun Biotech Co., Ltd. Assay details are as follows: tumor cells were seeded in a 96-well plate at a density listed in Table 5. After 24 h, 100 μL of the inoculated cells were treated with 0.5 μL of the compounds of the present disclosure (including the compounds in Tables 1 and 3, and compounds of examples) at 10 different successively decreasing concentrations (starting at the highest concentration of 10 μM; 5-fold serial dilutions). After the cells were treated with the compounds of the present disclosure for a period of time, the cell viability detection reagent was added to the culture medium for cell viability assessment according to the instructions provided with the CCK-8 kit. […] The growth inhibition of the compounds of the present disclosure on cells was plotted by Prism Graphpad software, and the IC50 values of the compounds of the present disclosure were calculated therefrom.

The subject of another assay is CCRF-CEM. Put plainly: CCK-8 tumor cell proliferation, CCRF-CEM. As to conditions: Homo sapiens; Table 19, IRAK4 inhibitor based; CCRF-CEM; read-out: IC50 inhibiting proliferation of tumor cells, CCRF-CEM. The assay is classed as cell-based, Human. In short, it runs like this: as §1
For a further assay, the system named is Jurkat. Put plainly: CCK-8 tumor cell proliferation, Jurkat. As to conditions: Homo sapiens. The assay is classed as cell-based, Human. The protocol: as §2, §3
The next assay concerns MM.1R. Put plainly: CCK-8 tumor cell proliferation, MM.1R. In kind it is cell-based. As for the experimental part:
as §2, §3

A further assay deals with CAL-62. Put plainly: CCK-8 tumor cell proliferation, CAL-62. In kind it is cell-based, Human. The note with it: Homo sapiens, CAL-62. In outline: as §1
The mark [1] stands for this setting: Table 19, IRAK4 inhibitor based.
[2] abbreviates: Table 19, IRAK4 inhibitor based, read-out: IC50 inhibiting proliferation of tumor cells, Jurkat.
[3] abbreviates: Table 19, IRAK4 inhibitor based, read-out: IC50 inhibiting proliferation of tumor cells, MM.1R.
Setting [4] is: Table 19, IRAK4 inhibitor based, read-out: IC50 inhibiting proliferation of tumor cells, CAL-62.
The mark [5] stands for this setting: Table 23, compared to Comparative Example compounds, read-out: Inhibitory activity (IC50, nM) against tumor cell proliferation, Jurkat.
The mark [6] stands for this setting: Table 23, compared to Comparative Example compounds, read-out: Inhibitory activity (IC50, nM) against tumor cell proliferation, MM.1R.
[7] abbreviates: Table 23, compared to Comparative Example compounds, read-out: Inhibitory activity (IC50, nM) against tumor cell proliferation, CAL-62.

Like-named read-outs stand apart in the source and are kept apart here.

Turning to `CCc1cc2c(cc1N1CCC(N3CCN(Cc4ccc5c(c4F)CN(C4CCC(=O)NC4=O)C5=O)CC3)CC1)C(C)(C)c1[nH]c3cc(C#N)ccc3c1C2=O` (centres unmarked) [GT-03758, 8-(4-(4-((2-(2,6-dioxopiperidin-3-yl)-4-fluoro-1-oxoisoindolin-5-yl)methyl)piperazin-1-yl)piperidin-1-yl)-9-ethyl-6,6-dimethyl-11-oxo-6,11-dihydro-5H-benzo[b]carbazole-3-carbonitrile], the IC50 in the assay on SR was below 50 nM; in the assay on MV-4-11 (Table 15, ALK inhibitor based), 100 to 500 nM.

Turning to `CCc1cc2c(cc1N1CCC(N3CCN(Cc4ccc5c(c4)C(=O)N(C4CCC(=O)NC4=O)C5=O)CC3)CC1)C(C)(C)c1[nH]c3cc(C#N)ccc3c1C2=O` (centres unmarked) [GT-03761, 8-(4-(4-((2-(2,6-dioxopiperidin-3-yl)-1,3-dioxoisoindolin-5-yl)methyl)piperazin-1-yl)piperidin-1-yl)-9-ethyl-6,6-dimethyl-11-oxo-6,11-dihydro-5H-benzo[b]carbazole-3-carbonitrile], the IC50 in the assay on SR is below 50 nM; in the assay with MV-4-11 (Table 15, ALK inhibitor based) it was 1000 to 5000 nM.

Regarding `COc1cc(N2CCN(Cc3ccc4c(c3)CN(C3CCC(=O)NC3=O)C4=O)CC2)ccc1Nc1ncc(Cl)c(Nc2ccccc2P(C)(C)=O)n1` (centres unmarked) [GT-03775, 3-(5-((4-(4-((5-chloro-4-((2-(dimethylphosphoryl)phenyl)amino)pyrimidin-2-yl)amino)-3-methoxyphenyl)piperazin-1-yl)methyl)-1-oxoisoindolin-2-yl)piperidine-2,6-dione], the IC50 in the assay on SR is below 50 nM; with MV-4-11 (Table 15, ALK inhibitor based) it was 100 to 500 nM.

As for `COc1cc(N2CCN(Cc3ccc4c(c3F)CN(C3CCC(=O)NC3=O)C4=O)CC2)ccc1Nc1ncc(Cl)c(Nc2ccccc2P(C)(C)=O)n1` (centres unmarked) [GT-03776, 3-(5-((4-(4-((5-chloro-4-((2-(dimethylphosphoryl)phenyl)amino)pyrimidin-2-yl)amino)-3-methoxyphenyl)piperazin-1-yl)methyl)-4-fluoro-1-oxoisoindolin-2-yl)piperidine-2,6-dione], the IC50 with SR is below 50 nM; in the assay on MV-4-11 (Table 15, ALK inhibitor based), 100 to 500 nM.

For `Cc1cc(-c2nc(C(=O)Nc3cc4oc(N5CCN(Cc6ccc7c(c6F)CN(C6CCC(=O)NC6=O)C7=O)CC5)nc4nc3N3CC[C@@H](O)C3)co2)ccn1` (stereo partly drawn) [GT-03841, N-(2-(4-((2-(2,6-dioxopiperidin-3-yl)-4-fluoro-1-oxoisoindolin-5-yl)methyl)piperazin-1-yl)-5-((R)-3-hydroxypyrrolidin-1-yl)oxazolo[4,5-b]pyridin-6-yl)-2-(2-methylpyridin-4-yl)oxazole-4-carboxamide], the IC50 in the assay on MV-4-11 (setting [1]) was in the range of 100 to 500 nM.

Consider `Cc1cc(-c2nc(C(=O)Nc3cc4oc(N5CCN(Cc6cc7c(cc6F)C(=O)N(C6CCC(=O)NC6=O)C7)CC5)nc4nc3N3CC[C@@H](O)C3)co2)ccn1` (stereo partly drawn) [GT-03842, N-(2-(4-((2-(2,6-dioxopiperidin-3-yl)-6-fluoro-1-oxoisoindolin-5-yl)methyl)piperazin-1-yl)-5-((R)-3-hydroxypyrrolidin-1-yl)oxazolo[4,5-b]pyridin-6-yl)-2-(2-methylpyridin-4-yl)oxazole-4-carboxamide], for which, in the assay with MV-4-11 (setting [1]), the IC50 is 100 to 500 nM.

Consider `Cc1cc(-c2nc(C(=O)Nc3cc4oc(N5CCN(Cc6cc(F)c7c(c6)CN(C6CCC(=O)NC6=O)C7=O)CC5)nc4nc3N3CC[C@@H](O)C3)co2)ccn1` (stereo partly drawn) [GT-03843, N-(2-(4-((2-(2,6-dioxopiperidin-3-yl)-7-fluoro-1-oxoisoindolin-5-yl)methyl)piperazin-1-yl)-5-((R)-3-hydroxypyrrolidin-1-yl)oxazolo[4,5-b]pyridin-6-yl)-2-(2-methylpyridin-4-yl)oxazole-4-carboxamide], for which the IC50 with CCRF-CEM was below 50 nM; in the assay with MV-4-11 (setting [1]), 50 to 100 nM.

As for `Cc1cc(-c2nc(C(=O)Nc3cc4oc(N5CCN(Cc6cccc7c6CN(C6CCC(=O)NC6=O)C7=O)CC5)nc4nc3N3CC[C@@H](O)C3)co2)ccn1` (stereo partly drawn) [GT-03844, N-(2-(4-((2-(2,6-dioxopiperidin-3-yl)-1-oxoisoindolin-4-yl)methyl)piperazin-1-yl)-5-((R)-3-hydroxypyrrolidin-1-yl)oxazolo[4,5-b]pyridin-6-yl)-2-(2-methylpyridin-4-yl)oxazole-4-carboxamide], the IC50 with MV-4-11 (setting [1]) fell in the range of 100 to 500 nM.

As for `Cc1cc(-c2nc(C(=O)Nc3cc4oc(N5CCN(Cc6ccc7c(c6)C(=O)N(C6CCC(=O)NC6=O)C7=O)CC5)nc4nc3N3CC[C@@H](O)C3)co2)ccn1` (stereo partly drawn) [GT-03845, N-(2-(4-((2-(2,6-dioxopiperidin-3-yl)-1,3-dioxoisoindolin-5-yl)methyl)piperazin-1-yl)-5-((R)-3-hydroxypyrrolidin-1-yl)oxazolo[4,5-b]pyridin-6-yl)-2-(2-methylpyridin-4-yl)oxazole-4-carboxamide], the IC50 in the assay on MV-4-11 (setting [1]) lay within 500 to 1000 nM.

Take `CC(C)(O)c1cc2nc(C3CCN(Cc4ccc5c(c4F)CN(C4CCC(=O)NC4=O)C5=O)CC3)oc2cc1NC(=O)c1cccc(C(F)(F)F)n1` (centres unmarked) [GT-04518, N-(2-(1-((2-(2,6-dioxopiperidin-3-yl)-4-fluoro-1-oxoisoindolin-5-yl)methyl)piperidin-4-yl)-5-(2-hydroxypropan-2-yl)benzo[d]oxazol-6-yl)-6-(trifluoromethyl)picolinamide]: the figures for the IC50 in the assay on Jurkat (setting [2]), with MM.1R (setting [3]) and with CAL-62 (setting [4]) were below 50 nM, 50 to 100 nM and 100 to 500 nM, respectively.

Consider `CC(C)(O)c1cc2nc(C3CCN(Cc4cc5c(cc4F)C(=O)N(C4CCC(=O)NC4=O)C5)CC3)oc2cc1NC(=O)c1cccc(C(F)(F)F)n1` (centres unmarked) [GT-04519, N-(2-(1-((2-(2,6-dioxopiperidin-3-yl)-6-fluoro-1-oxoisoindolin-5-yl)methyl)piperidin-4-yl)-5-(2-hydroxypropan-2-yl)benzo[d]oxazol-6-yl)-6-(trifluoromethyl)picolinamide], for which the IC50 with Jurkat (setting [2]), with MM.1R (setting [3]) and with CAL-62 (setting [4]) was below 50 nM in each case.

Turning to `O=C1CCC(N2Cc3cc(CCN4CCN(c5ccc([C@@H]6c7ccc(O)cc7CC[C@@H]6c6ccccc6)cc5)CC4)ccc3C2=O)C(=O)N1` (stereo partly drawn) [GT-04562, 3-(5-(2-(4-(4-((1R,2S)-6-hydroxy-2-phenyl-1,2,3,4-tetrahydronaphthalen-1-yl)phenyl)piperazin-1-yl)ethyl)-1-oxoisoindolin-2-yl)piperidine-2,6-dione], the values for the IC50 with Jurkat (setting [5]), in the assay on MM.1R (setting [6]) and in the assay on CAL-62 (setting [7]) were 100 to 500 nM, 5000 to 10000 nM and 1000 to 5000 nM, respectively.

Consider `Nc1ncnc2c1c(-c1ccc(Oc3ccccc3)cc1)nn2C1CCN(CCc2ccc3c(c2)CN(C2CCC(=O)NC2=O)C3=O)CC1` (centres unmarked) [GT-04563, 3-(5-(2-(4-(4-amino-3-(4-phenoxyphenyl)-1H-pyrazolo[3,4-d]pyrimidin-1-yl)piperidin-1-yl)ethyl)-1-oxoisoindolin-2-yl)piperidine-2,6-dione], for which the IC50 with Jurkat (setting [5]) was 1000 to 5000 nM; with MM.1R (setting [6]), below 50 nM; with CAL-62 (setting [7]), 5000 to 10000 nM.

For the compound `O=C1CCC(N2Cc3cc(CCCN4CCN(c5ccc([C@@H]6c7ccc(O)cc7CC[C@@H]6c6ccccc6)cc5)CC4)ccc3C2=O)C(=O)N1` (stereo partly drawn) [GT-04564, 3-(5-(3-(4-(4-((1R,2S)-6-hydroxy-2-phenyl-1,2,3,4-tetrahydronaphthalen-1-yl)phenyl)piperazin-1-yl)propyl)-1-oxoisoindolin-2-yl)piperidine-2,6-dione], the values for the IC50 with Jurkat (setting [5]), in the assay with MM.1R (setting [6]) and with CAL-62 (setting [7]) were 100 to 500 nM, 1000 to 5000 nM and 1000 to 5000 nM, respectively.

Take `Nc1ncnc2c1c(-c1ccc(Oc3ccccc3)cc1)nn2C1CCN(CCCc2ccc3c(c2)CN(C2CCC(=O)NC2=O)C3=O)CC1` (centres unmarked) [GT-04565, 3-(5-(3-(4-(4-amino-3-(4-phenoxyphenyl)-1H-pyrazolo[3,4-d]pyrimidin-1-yl)piperidin-1-yl)propyl)-1-oxoisoindolin-2-yl)piperidine-2,6-dione]: the IC50 was 5000 to 10000 nM in the assay on Jurkat (setting [5]); above 10000 nM in the assay with MM.1R (Table 23, given as number, read-out: Inhibitory activity (IC50, nM) against tumor cell proliferation, MM.1R); above 10000 nM with CAL-62 (Table 23, given as number, read-out: Inhibitory activity (IC50, nM) against tumor cell proliferation, CAL-62).
